Measured values published in ChEMBL document CHEMBL4411288, “Design, synthesis and biological evaluation of novel 7-amino-[1,2,4]triazolo[4,3-f]pteridinone, and 7-aminotetrazolo[1,5-f]pteridinone derivative as potent antitumor agents” (Eur J Med Chem, 2019).

Key:
[1] = tested on: PC-3; assay: Cytotoxicity against human PC3 cells assessed as reduction in cell viability after 72 hrs by MTT assay; assay type: functional, cell-based; conditions: PC-3, 72 h
[2] = tested on: HCT-116; assay: Cytotoxicity against human HCT116 cells assessed as reduction in cell viability after 72 hrs by MTT assay; assay type: functional, cell-based; conditions: HCT-116, 72 h
[3] = tested on: MCF7; assay: cells; conditions: Homo sapiens, MCF7, 72 h
Description: Cytotoxicity against human MCF7 cells assessed as reduction in cell viability after 72 hrs by MTT assay

[4] = tested on: MDA-MB-231; assay: cells; conditions: Homo sapiens, MDA-MB-231, 72 h
Description: Cytotoxicity against human MDA-MB-231 cells assessed as reduction in cell viability after 72 hrs by MTT assay

[5] = tested on: A549; assay: Cytotoxicity against human A549 cells assessed as reduction in cell viability after 72 hrs by MTT assay; assay type: functional, cell-based; conditions: A549, 72 h

| Structure (SMILES) | IC50 [1] [µM] | IC50 [2] [µM] | IC50 [3] [µM] | IC50 [4] [µM] | IC50 [5] [µM] |
| --- | --- | --- | --- | --- | --- |
| O=c1c2nncn2c2cnc(Nc3ccc(N4CCSCC4)cc3)nc2n1C1CCCC1 | > 50 | 12 | > 50 | 6.4 | 2.12 |
| Cc1nnc2c(=O)n(C3CCCC3)c3nc(Nc4ccc(N5CCC(N6CCN(C)CC6)CC5)cc4)ncc3n12 | > 50 | 12.1 | 3.21 | 5.85 | 2.38 |
| Cc1nnc2c(=O)n(C3CCCC3)c3nc(Nc4ccc(N5CCC(C)CC5)cc4)ncc3n12 | > 50 | 11.2 | > 50 | > 50 | > 50 |
| Cc1nnc2c(=O)n(C3CCCC3)c3nc(Nc4ccc(NC5CCCC5)cc4)ncc3n12 | > 50 | > 50 | > 50 | > 50 | 9.29 |
| O=c1c2nnnn2c2cnc(Nc3ccc(N4CCN(CCO)CC4)cc3)nc2n1C1CCCC1 | > 50 | > 50 | 2.31 | > 50 | 3.85 |
| Cc1nnc2c(=O)n(C3CCCC3)c3nc(Nc4ccc(N5CCOCC5)cc4)ncc3n12 | > 50 | 8.91 | > 50 | > 50 | 4.29 |
| Cc1nnc2c(=O)n(C3CCCC3)c3nc(Nc4ccc(N5CCCC5)cc4)ncc3n12 | > 50 | > 50 | > 50 | > 50 | > 50 |
| O=c1c2nncn2c2cnc(Nc3ccc(N4CCOCC4)cc3)nc2n1C1CCCC1 | > 50 | 8.91 | > 50 | 3.5 | 38.9 |
| O=c1c2nncn2c2cnc(Nc3ccc(N4CCC(O)CC4)cc3)nc2n1C1CCCC1 | > 50 | 36.1 | > 50 | 8.1 | 41.7 |
| Cc1nnc2c(=O)n(C3CCCC3)c3nc(Nc4ccc(N5CCSCC5)cc4)ncc3n12 | > 50 | 5.82 | > 50 | > 50 | 7.19 |
| CC1CCN(c2ccc(Nc3ncc4c(n3)n(C3CCCC3)c(=O)c3nncn34)cc2)CC1 | > 50 | 12 | > 50 | 4.9 | 3.31 |
| Cc1nnc2c(=O)n(C3CCCC3)c3nc(Nc4ccc(N5CCC(O)CC5)cc4)ncc3n12 | > 50 | 18.1 | > 50 | > 50 | 21.7 |
| O=c1c2nncn2c2cnc(Nc3ccc(N4CCCC4)cc3)nc2n1C1CCCC1 | 11.3 | 49.3 | > 50 | > 50 | 5.63 |
| O=c1c2nnnn2c2cnc(Nc3ccc(N4CCCCC4)cc3)nc2n1C1CCCC1 | > 50 | > 50 | > 50 | > 50 | 1.16 |
| CCN1CCN(c2ccc(N(C(C)=O)c3ncc4c(n3)n(C3CCCC3)c(=O)c3nnc(C)n34)cc2)CC1 | > 50 | 40.3 | > 50 | > 50 | 20.2 |
| CC1CCN(c2ccc(Nc3ncc4c(n3)n(C3CCCC3)c(=O)c3nnnn34)cc2)CC1 | > 50 | > 50 | > 50 | > 50 | 4.92 |
| CN(C)c1ccc(Nc2ncc3c(n2)n(C2CCCC2)c(=O)c2nnnn23)cc1 | > 50 | > 50 | 2.58 | > 50 | 10.1 |

| Structure (SMILES) | IC50 [1] [µM] | IC50 [2] [µM] | IC50 [3] [µM] | IC50 [4] [µM] | IC50 [5] [µM] |
| --- | --- | --- | --- | --- | --- |
| O=c1c2nnnn2c2cnc(Nc3ccc(N4CCN(C5CCCC5)CC4)cc3)nc2n1C1CCCC1 | > 50 | 2.12 | > 50 | > 50 | > 50 |
| CC(=O)c1c(C)c2cnc(Nc3ccc(N4CCNCC4)cn3)nc2n(C2CCCC2)c1=O [PALBOCICLIB] | 2.2 | 8.9 | 4.09 | 3.5 | 1.32 |
| CN1CCN(C2CCN(c3ccc(Nc4ncc5c(n4)n(C4CCCC4)c(=O)c4nncn45)cc3)CC2)CC1 | 13.4 | 9.3 | > 50 | > 50 | 2.95 |
| Cc1nnc2c(=O)n(C3CCCC3)c3nc(Nc4ccc(N5CCCCC5)cc4)ncc3n12 | > 50 | 19.1 | > 50 | 6.26 | 5.24 |
| O=c1c2nncn2c2cnc(Nc3ccc(N4CCCCC4)cc3)nc2n1C1CCCC1 | > 50 | 20.1 | > 50 | 3.85 | 3.11 |
| O=c1c2nnnn2c2cnc(Nc3ccc(NC4CCCC4)cc3)nc2n1C1CCCC1 | > 50 | 43.2 | > 50 | 8.95 | > 50 |
| Cc1nnc2c(=O)n(C3CCCC3)c3nc(Nc4ccc(N(C)C)cc4)ncc3n12 | > 50 | 29.1 | > 50 | > 50 | 8.86 |
| CN1CCN(C2CCN(c3ccc(Nc4ncc5c(n4)n(C4CCCC4)c(=O)c4nnnn45)cc3)CC2)CC1 | > 50 | 7.62 | > 50 | 5.81 | 1.28 |
| O=c1c2nnnn2c2cnc(Nc3ccc(N4CCC(O)CC4)cc3)nc2n1C1CCCC1 | > 50 | 36.3 | > 50 | 53.5 | > 50 |
| CCN1CCN(c2ccc(Nc3ncc4c(n3)n(C3CCCC3)c(=O)c3nnnn34)cc2)CC1 | 16.1 | > 50 | > 50 | > 50 | 3.57 |
| CN(C)c1ccc(Nc2ncc3c(n2)n(C2CCCC2)c(=O)c2nncn23)cc1 | > 50 | 19.1 | 7.28 | > 50 | 3.89 |
| O=c1c2nncn2c2cnc(Nc3ccc(NC4CCCC4)cc3)nc2n1C1CCCC1 | > 50 | 21.2 | > 50 | > 50 | > 50 |
| O=c1c2nncn2c2cnc(Nc3ccc(N4CCN(C5CCCC5)CC4)cc3)nc2n1C1CCCC1 | > 50 | 22.3 | > 50 | 3.96 | > 50 |
| O=c1c2nnnn2c2cnc(Nc3ccc(N4CCSCC4)cc3)nc2n1C1CCCC1 | > 50 | > 50 | > 50 | 37.4 | > 50 |
| O=c1c2nnnn2c2cnc(Nc3ccc(N4CCCC4)cc3)nc2n1C1CCCC1 | > 50 | > 50 | > 50 | > 50 | 7.86 |
| O=c1c2nncn2c2cnc(Nc3ccc(N4CCN(CCO)CC4)cc3)nc2n1C1CCCC1 | 19.1 | 9.71 | 1.91 | > 50 | 9.8 |
| O=c1c2nnnn2c2cnc(Nc3ccc(N4CCOCC4)cc3)nc2n1C1CCCC1 | > 50 | 43.2 | > 50 | 48.5 | 4.81 |
